Laboratory results taken from publication PMC10213937 (Frontiers in Pharmacology, 2023).
Where two headings read alike, the source gives them in different places.

Tests used:
[1] = Stability in rat blood plasma (HPLC-MS/MS validation); settings: n = 5
[2] = Plasma concentrations of ATO, metabolites and VOR in patients (HPLC-MS/MS); type: in vivo, human; set-up: Concentration in human blood samples: unit not given here; settings: for Concentration in human blood samples: n = 3; for Decrease of metabolite concentration in the VOR group: VOR + ATO vs ATO alone
From the text: The experimental procedures were approved by the Ethics Committee of Shenzhen Hospital of Southern Medical University, and conducted in accordance with the Declaration of Helsinki (No. NYSZYYEC20180017). Subjects were selected from patients seen in the Department of Critical Care Medicine of Shenzhen Hospital of Southern Medical University, who were diagnosed with fungal infections complicated by cardiovascular and cerebrovascular diseases. Written informed consent was obtained from three patients aged 20-55 years. […] All procedures followed the ethical principles of the World Medical Association (WMA) Declaration of Helsinki and were approved by the Medical Ethics Committee of Shenzhen Hospital. […] Prelude […] The injection volume is 2 μL.

[3] = biological target: ABCC2 (Homo sapiens, UniProt Q92887); experiment: ATO uptake/transport in cell transport models, ABCC2; type: cell-based; settings: ATO as substrate, MK571 20 μM
[4] = rat
[5] = Pharmacokinetic interaction study in rats, Study II: VOR with or without ATO; type: in vivo; settings: male, Sprague-Dawley, rat, plasma, po, 20 mg/kg; for AUC(0-t): read-out: AUC0–24h
Experimental: Considering the clinical dosage of each drug and the dose equivalence between rats and human subjects, the corresponding quantity of drug powder was taken and resuspended with normal saline to prepare the drug-containing administration solution before treatment.
Treatment of the blood plasma: 40 µL of blood plasma was mixed with 10 µL of internal standard working solution (500 ng/ml) and acidified with 100 µL CH3COONa (0.1 mol/L). After the methyl tert-butyl (1 ml) was added, the mixture was vortexed for 5 min and centrifuged at 3000 r/min for 10 min at 4°C. The supernatant was removed into another 10 ml conical glass tube and dried in a rotary evaporator at 45°C. The residue was redissolved in 100 µL methanol and vortexed for 1 min, followed by HPLC-MS/MS analysis.
A Thermo Scientific™ TSQ Quantiva™ triple-stage quadrupole mass spectrometer (Thermo Fisher Scientific, MA, USA) equipped with a Thermo Scientific™ OptaMax™ NG ion source was used for the experiments. Prelude SPLC™ System samples, pretreatment technology (TurboFlow Eddy current purification), and a Thermo Scientific liquid chromatography system were also connected to the mass spectrometer. The HPLC conditions were as follows: column, Thermo Hypersil Gold C18 column (2.1 × 100 mm, 1.9 μm), column temperature maintained at 40 °C; TurboFlow column, Thermo Cyclone TM-P (0.5 × 50 mm) (ThermoFisher Scientific, MA, USA). The injection volume is 2 μL.
The analytes were quantified by selective reaction monitoring (SRM) that used heating electrospray ionization (H-ESI) in the positive ion mode. The main working parameters of the mass spectrometry were regulated as follows: ion spray voltage, 3 kV; capillary temperature, 350°C; sheath gas (N2) flow, 45 Arb; auxiliary gas (N2) flow, 10 Arb; and collision gas (Ar) flow, 2 mTorr. […] Thermo Scientific™ Pinpoint™ software version 1.3 (ThermoFisher Scientific, MA, USA) was used for data acquisition.
The blood samples (0.2 ml aliquots) were collected after taking a single dose of the test drug, which was the same as described in Study I. The blood samples were preserved on ice for further processing; after centrifuging at 4000 rpm for 5 min, the plasma samples were obtained and stored at −80°C until further analysis was performed. […] Non-compartmental pharmacokinetic analysis of plasma data was conducted using DAS (2.0 version, BioGuider Co., Shanghai, China) to calculate the parameters in the pharmacokinetic study.

[6] = system: CYP3A; experiment: in vitro; settings: rat, microsomes
[7] = system: CYP3A; experiment: Inhibition by VOR of ATO metabolism in rat liver microsomes; type: in vitro ADME; settings: pH 7.4, probe atorvastatin (ATO), 2 μM
Experimental: The incubations were performed in duplicate.

[8] = 24 h at 25℃, nominal 0.05 ng/mL
[9] = three freeze-thaw cycle (−80℃/25℃), nominal 0.05 ng/mL
[10] = three freeze-thaw cycle (−80℃/25℃), nominal 5 ng/mL
[11] = three freeze-thaw cycle (−80℃/25℃), nominal 80 ng/mL
[12] = ATO 20 mg alone, 0 h after taking ATO
[13] = ATO 20 mg alone, 1 h after taking ATO
[14] = ATO 20 mg alone, 2 h after taking ATO
[15] = ATO 20 mg alone, 12 h after taking ATO
[16] = ATO 20 mg alone, 24 h after taking ATO
[17] = VOR + ATO (VOR iv 6 mg/kg day 1, 4 mg/kg days 2–3), 0 h after taking ATO
[18] = first of four printed values (1 h by Table 1)
[19] = fourth of four printed values (24 h by Table 1)
[20] = second of four printed values (2 h by Table 1)
[21] = third of four printed values (12 h by Table 1)
[22] = VOR + ATO, 1 h after taking ATO
[23] = VOR + ATO, 2 h after taking ATO
[24] = VOR + ATO, 12 h after taking ATO
[25] = VOR + ATO, 24 h after taking ATO
[26] = ATO 2 mg/kg + VOR 20 mg/kg oral

Chain of ABCC2 (Q92887 whole entry): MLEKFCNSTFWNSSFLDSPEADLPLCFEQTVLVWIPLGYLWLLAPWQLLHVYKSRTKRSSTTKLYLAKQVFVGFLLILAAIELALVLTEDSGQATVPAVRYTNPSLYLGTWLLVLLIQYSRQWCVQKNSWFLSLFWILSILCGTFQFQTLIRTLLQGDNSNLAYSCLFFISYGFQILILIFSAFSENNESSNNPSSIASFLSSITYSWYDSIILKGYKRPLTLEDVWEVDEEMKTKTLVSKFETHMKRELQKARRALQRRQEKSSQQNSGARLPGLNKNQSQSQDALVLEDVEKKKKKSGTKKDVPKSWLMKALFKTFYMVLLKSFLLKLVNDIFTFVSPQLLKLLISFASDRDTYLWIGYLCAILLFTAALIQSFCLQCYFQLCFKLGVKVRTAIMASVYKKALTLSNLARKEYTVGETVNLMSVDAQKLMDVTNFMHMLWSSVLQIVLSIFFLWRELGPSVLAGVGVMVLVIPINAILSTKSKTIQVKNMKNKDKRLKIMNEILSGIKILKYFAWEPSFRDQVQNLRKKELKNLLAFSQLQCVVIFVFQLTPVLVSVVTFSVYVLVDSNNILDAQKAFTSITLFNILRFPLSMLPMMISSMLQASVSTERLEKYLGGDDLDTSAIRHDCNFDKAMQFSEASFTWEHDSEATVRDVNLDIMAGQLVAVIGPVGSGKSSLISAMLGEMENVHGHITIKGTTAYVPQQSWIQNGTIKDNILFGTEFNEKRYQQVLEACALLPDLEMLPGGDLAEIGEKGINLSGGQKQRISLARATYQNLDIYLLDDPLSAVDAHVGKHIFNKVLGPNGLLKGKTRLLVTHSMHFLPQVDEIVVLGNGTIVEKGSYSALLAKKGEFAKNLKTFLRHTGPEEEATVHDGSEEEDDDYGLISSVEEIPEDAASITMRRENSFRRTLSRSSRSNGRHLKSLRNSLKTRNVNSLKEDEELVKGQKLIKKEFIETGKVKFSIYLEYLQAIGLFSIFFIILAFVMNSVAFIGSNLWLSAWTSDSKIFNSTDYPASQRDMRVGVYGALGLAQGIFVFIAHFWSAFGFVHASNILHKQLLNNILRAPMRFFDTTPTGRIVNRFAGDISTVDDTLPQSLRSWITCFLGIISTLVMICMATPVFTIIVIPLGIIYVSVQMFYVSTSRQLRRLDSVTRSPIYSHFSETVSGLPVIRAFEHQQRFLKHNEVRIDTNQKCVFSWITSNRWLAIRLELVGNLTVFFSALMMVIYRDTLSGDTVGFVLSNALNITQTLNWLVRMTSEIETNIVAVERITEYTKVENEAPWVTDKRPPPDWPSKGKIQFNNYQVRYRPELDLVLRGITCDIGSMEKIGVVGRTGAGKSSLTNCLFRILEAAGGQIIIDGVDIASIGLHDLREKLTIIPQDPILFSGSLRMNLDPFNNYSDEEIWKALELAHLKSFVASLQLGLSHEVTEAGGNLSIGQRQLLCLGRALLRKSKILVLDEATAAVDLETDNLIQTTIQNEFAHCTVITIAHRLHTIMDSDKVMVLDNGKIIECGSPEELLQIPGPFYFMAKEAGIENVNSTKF

Stability, %RE [1, 8] [%] | Stability, measured concentration (mean ± SD) [1, 8] [ng/mL] | Stability, %RE ([1]; 24 h at 25℃, nominal 5 ng/mL) [%] | Stability, measured concentration (mean ± SD) ([1]; 24 h at 25℃, nominal 5 ng/mL) [ng/mL] | Stability, %RE ([1]; 24 h at 25℃, nominal 80 ng/mL) [%] | Stability, measured concentration (mean ± SD) ([1]; 24 h at 25℃, nominal 80 ng/mL) [ng/mL] | Stability, %RE [1, 9] [%] | Stability, measured concentration (mean ± SD) [1, 9] [ng/mL] | Stability, %RE [1, 10] [%] | Stability, measured concentration (mean ± SD) [1, 10] [ng/mL] | Concentration in human blood samples [2, 12] | Concentration in human blood samples [2, 13] | Concentration in human blood samples [2, 14] | Concentration in human blood samples [2, 15] | Concentration in human blood samples [2, 16] | Concentration in human blood samples [2, 17] | Concentration in human blood samples [2, 22] | Concentration in human blood samples [2, 23] | Concentration in human blood samples [2, 24] | Concentration in human blood samples [2, 25] | SMILES | further results
-0.35 | 0.047 ± 0.005 | -8.25 | 4.538 ± 0.424 | -6.25 | 76.114 ± 5.314 | -8.35 | 0.044 ± 0.004 | -1.35 | 4.554 ± 0.568 | 3.401 ± 1.028 | 21.602 ± 1.929 | 15.196 ± 1.779 | 10.106 ± 2.969 | 3.950 ± 1.867 | 4.239 + 2.160 | 5.543 + 2.235 | 10.100 + 1.896 | 4.475 + 2.687 | 2.200 + 1.184 | CC(C)c1c(C(=O)Nc2ccccc2O)c(-c2ccccc2)c(-c2ccc(F)cc2)n1CCC(O)CC(O)CC(=O)O (centres unmarked) [2-Hydroxy-ATO, 2-hydroxy-ATO] | Stability, %RE [1, 11]: -10.28%; Stability, measured concentration (mean ± SD) [1, 11]: 72.580 ± 4.221 ng/mL; Decrease of metabolite concentration in the VOR group [2, 18]: 74.34%; Decrease of metabolite concentration in the VOR group [2, 19]: 44.30%; Decrease of metabolite concentration in the VOR group [2, 20]: 33.53%; Decrease of metabolite concentration in the VOR group [2, 21]: 55.72%
-7.78 | 0.045 ± 0.007 | -2.31 | 4.625 ± 0.337 | -9.07 | 73.581 ± 6.587 | -9.87 | 0.044 ± 0.005 | -1.25 | 4.501 ± 0.411 | 4.073 ± 2.168 | 15.510 ± 1.283 | 14.783 ± 3.501 | 6.863 ± 1.586 | 6.103 ± 2.640 | 5.047 + 0.882 | 8.150 + 1.219 | 6.537 + 0.304 | 3.717 + 0.807 | 3.563 + 1.830 | CC(C)c1c(C(=O)Nc2ccc(O)cc2)c(-c2ccccc2)c(-c2ccc(F)cc2)n1CC[C@@H](O)C[C@@H](O)CC(=O)O [4-Hydroxy-ATO, 4-hydroxy-ATO] | Stability, %RE [1, 11]: -9.69%; Stability, measured concentration (mean ± SD) [1, 11]: 72.334 ± 7.338 ng/mL; Decrease of metabolite concentration in the VOR group [2, 18]: 47.45%; Decrease of metabolite concentration in the VOR group [2, 19]: 41.62%; Decrease of metabolite concentration in the VOR group [2, 20]: 55.78%; Decrease of metabolite concentration in the VOR group [2, 21]: 45.85%
– | – | – | – | – | – | – | – | – | – | – | – | – | – | – | – | – | – | – | – | CN(C)C(=O)CCSC(SCCC(=O)O)c1cccc(/C=C/c2ccc3ccc(Cl)cc3n2)c1 (centres unmarked) [MK571] | Effect on the activity (efflux) of ABCC2 [3]: reversed the efflux

SMILES | Stability, %RE [1, 8] [%] | Stability, measured concentration (mean ± SD) [1, 8] [ng/mL] | Stability, %RE ([1]; 24 h at 25℃, nominal 5 ng/mL) [%] | Stability, measured concentration (mean ± SD) ([1]; 24 h at 25℃, nominal 5 ng/mL) [ng/mL] | Stability, %RE ([1]; 24 h at 25℃, nominal 80 ng/mL) [%] | Stability, measured concentration (mean ± SD) ([1]; 24 h at 25℃, nominal 80 ng/mL) [ng/mL] | Stability, %RE [1, 9] [%] | Stability, measured concentration (mean ± SD) [1, 9] [ng/mL] | Stability, %RE [1, 10] [%] | Stability, measured concentration (mean ± SD) [1, 10] [ng/mL] | Concentration in human blood samples [2, 12] | Concentration in human blood samples [2, 13] | Concentration in human blood samples [2, 14] | Concentration in human blood samples [2, 15] | Concentration in human blood samples [2, 16] | Concentration in human blood samples [2, 17] | Concentration in human blood samples [2, 22] | Concentration in human blood samples [2, 23] | Concentration in human blood samples [2, 24] | Concentration in human blood samples [2, 25] | further results
C[C@@H](c1ncncc1F)[C@](O)(Cn1cncn1)c1ccc(F)cc1F [VOR, Voriconazole] | – | – | – | – | – | – | – | – | – | – | 0.007 + 0.012 | 0.000 + 0.000 | 0.007 + 0.012 | 0.000 + 0.000 | 0.007 + 0.012 | 2.870 + 0.325 | 2.673 + 0.465 | 2.563 + 0.122 | 2.780 + 0.317 | 2.820 + 0.540 | Stability, measured concentration (mean ± SD) ([4]; 0.05 ng/mL): 0.045 ± 0.004 ng/mL; Stability, measured concentration (mean ± SD) ([4]; 5 ng/mL): 4.558 ± 0.318 ng/mL; Stability, measured concentration (mean ± SD) ([4]; 80 ng/mL): 75.238 ± 5.338 ng/mL; Stability, measured concentration (mean ± SD) ([4]; 24 h, 0.05 ng/mL): 0.048 ± 0.004 ng/mL; Stability, measured concentration (mean ± SD) ([4]; 24 h, 5 ng/mL): 4.962 ± 0.301 ng/mL; Stability, measured concentration (mean ± SD) ([4]; 24 h, 80 ng/mL): 79.264 ± 5.131 ng/mL; AUC(0-inf) [5, 26]: 3280 ± 835 ng·h/mL; Cmax [5, 26]: 826 ± 166 ng/mL; Tmax [5, 26]: 0.917 ± 0.204 h; half-life [5, 26]: 2.6 ± 0.419 h; AUC(0-t) [5, 26]: 3250 ± 862 ng·h/mL; AUC(0-inf) ([5]; NS + VOR 20 mg/kg oral): 3640 ± 798 ng·h/mL; Cmax ([5]; NS + VOR 20 mg/kg oral): 829 ± 246 ng/mL; Tmax ([5]; NS + VOR 20 mg/kg oral): 1.25 ± 0.612 h; half-life ([5]; NS + VOR 20 mg/kg oral): 2.58 ± 0.317 h; AUC(0-t) ([5]; NS + VOR 20 mg/kg oral): 3630 ± 802 ng·h/mL; MRT inf ([5]; NS + VOR 20 mg/kg oral, read-out: MRT0-∞): 3.53 ± 0.66 h; Effect on the activity (efflux) of ABCC2 [3]: no effect; IC50 [6]: 49.8 µM; IC50 at 20 min [7]: 45.9 µM
